Marks after values point to notes of the source that are not given here.
How the values were obtained:
COX-1 = biological target: T1, COX-1 (Ovis aries, UniProt P05979); experiment: COX-1 inhibition assay (Cayman COX kit); assay type: biochemical, ovine/human; conditions: mean ± SE, n = 3
T1 construct: purchased Cayman 560131
T1 sequence (P05979 25-600): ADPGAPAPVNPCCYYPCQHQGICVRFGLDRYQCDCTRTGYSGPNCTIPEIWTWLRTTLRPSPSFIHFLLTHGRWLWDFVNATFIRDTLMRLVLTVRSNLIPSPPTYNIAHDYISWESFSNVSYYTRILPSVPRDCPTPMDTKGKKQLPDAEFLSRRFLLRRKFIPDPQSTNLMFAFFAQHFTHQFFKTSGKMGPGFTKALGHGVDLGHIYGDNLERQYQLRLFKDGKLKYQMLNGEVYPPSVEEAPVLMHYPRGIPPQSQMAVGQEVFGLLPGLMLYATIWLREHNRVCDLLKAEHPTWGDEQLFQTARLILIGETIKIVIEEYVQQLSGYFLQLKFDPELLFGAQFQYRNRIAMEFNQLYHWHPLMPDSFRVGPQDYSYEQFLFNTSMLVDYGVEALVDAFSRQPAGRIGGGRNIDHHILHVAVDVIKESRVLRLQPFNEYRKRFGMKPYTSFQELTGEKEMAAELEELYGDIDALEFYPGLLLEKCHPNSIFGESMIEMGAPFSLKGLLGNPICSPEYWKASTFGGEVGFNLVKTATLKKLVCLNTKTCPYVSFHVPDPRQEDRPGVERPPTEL
Description: (§1) The requirements for High-Performance Liquid Chromatography (HPLC) and all compounds tested were of the utmost analytical purity. […] COX-1 and COX-2 (ovine/human), as well as the 5-LOX enzyme (human recombinant) were obtained from Sigma-Aldrich. Dulbecco’s Modified Eagle’s Medium (DMEM), along with penicillin/streptomycin and L-glutamine, were acquired from Gibco BRL, California, USA. Fetal bovine serum (FBS) and 3-(4, 5-dimethylthiazol-2-yl)-2, 5-[…] (MTT) were supplied by Sigma-Aldrich, St. Louis, Missouri, USA.
(§2) The methanolic extract of V. odorata flowers and isolated flavonoids were subjected to an in vitro anti-inflammatory assessment by inhibiting two isoenzymes, cyclooxygenase COX-1 and COX-2 (ovine/human), as well as the 5-LOX enzyme (human recombinant).

[1] = biological target: T2, 5-LOX enzyme (human recombinant) (Homo sapiens, UniProt P09917); experiment: 5-lipoxygenase inhibition assay (5-LOX kit); assay type: biochemical; conditions: mean ± SE, n = 3
T2 construct: purchased Sigma-Aldrich 437996
T2 sequence (P09917 1-674): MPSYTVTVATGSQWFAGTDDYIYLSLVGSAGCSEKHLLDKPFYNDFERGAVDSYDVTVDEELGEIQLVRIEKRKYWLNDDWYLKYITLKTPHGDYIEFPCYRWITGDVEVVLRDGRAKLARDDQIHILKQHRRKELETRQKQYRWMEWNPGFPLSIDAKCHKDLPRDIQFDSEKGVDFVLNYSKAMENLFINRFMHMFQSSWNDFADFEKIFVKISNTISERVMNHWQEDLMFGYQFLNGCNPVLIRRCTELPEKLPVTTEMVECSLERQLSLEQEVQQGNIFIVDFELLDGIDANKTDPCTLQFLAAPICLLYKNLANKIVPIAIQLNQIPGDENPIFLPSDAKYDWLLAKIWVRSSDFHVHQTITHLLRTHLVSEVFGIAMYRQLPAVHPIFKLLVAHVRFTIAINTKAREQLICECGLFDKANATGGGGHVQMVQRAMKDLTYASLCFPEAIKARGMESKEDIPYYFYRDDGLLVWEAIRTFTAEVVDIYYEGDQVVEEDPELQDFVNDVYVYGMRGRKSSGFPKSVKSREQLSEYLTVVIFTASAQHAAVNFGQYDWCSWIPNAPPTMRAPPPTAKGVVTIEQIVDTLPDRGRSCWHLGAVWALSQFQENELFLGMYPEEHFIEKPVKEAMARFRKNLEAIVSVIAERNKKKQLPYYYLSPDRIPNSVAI
Description: as §1, §2

[2] = test system: hepatocellular carcinoma (HepG2); experiment: MTT cytotoxicity assay, HepG2; assay type: cell-based, human; conditions: for % Cell viability / % Cytotoxicity: 48 h
Method: (§3) The assessment of cytotoxicity for the methanolic extract and isolated flavonoids was performed under controlled and sterile conditions within a Class II A2 Laminar flow biosafety cabinet. The carcinoma cell lines used in this study was obtained from Nawah Scientific Inc. (Cairo, Egypt). The cells were cultured in Dulbecco’s Modified Eagle’s Medium, enriched with 10% heat-inactivated fetal bovine serum, 100 U/ml penicillin, and 100 μg/ml streptomycin sulfate, maintained at […] in humidified incubators with 5% CO2. Upon reaching approximately 80% confluence, the cells were subcultured using a trypsin–EDTA solution. Harvesting occurred during the logarithmic growth phase. The methanolic extract and isolated flavonoids were dissolved in DMSO and stored at − 20 °C. For each experimental trial, the stock solutions were mixed with the culture medium to obtain the required final concentrations.
(§4) The effectiveness of the extract was compared to that of the reference drug, Doxorubicin. The percentage of cell viability was calculated by taking the ratio of the absorbance of the plant extract to that of the control, multiplied by 100. Furthermore, the IC50 value of the plant extract was determined using Sigma Plot software version 11 (Spw.exe) (https://sigmaplot.software.informer.com/11.0/).

[3] = test system: human colonic epithelial cells (Caco-2); experiment: MTT cytotoxicity assay, Caco-2; assay type: cell-based; conditions: for % Cell viability / % Cytotoxicity: 48 h
Method: as §3, §4

COX-2 = biological target: T3, COX-2 (Homo sapiens, UniProt P35354); experiment: COX-2 inhibition assay (Cayman COX kit); assay type: biochemical, ovine/human
T3 construct: purchased Cayman 560131
T3 sequence (P35354 18-604): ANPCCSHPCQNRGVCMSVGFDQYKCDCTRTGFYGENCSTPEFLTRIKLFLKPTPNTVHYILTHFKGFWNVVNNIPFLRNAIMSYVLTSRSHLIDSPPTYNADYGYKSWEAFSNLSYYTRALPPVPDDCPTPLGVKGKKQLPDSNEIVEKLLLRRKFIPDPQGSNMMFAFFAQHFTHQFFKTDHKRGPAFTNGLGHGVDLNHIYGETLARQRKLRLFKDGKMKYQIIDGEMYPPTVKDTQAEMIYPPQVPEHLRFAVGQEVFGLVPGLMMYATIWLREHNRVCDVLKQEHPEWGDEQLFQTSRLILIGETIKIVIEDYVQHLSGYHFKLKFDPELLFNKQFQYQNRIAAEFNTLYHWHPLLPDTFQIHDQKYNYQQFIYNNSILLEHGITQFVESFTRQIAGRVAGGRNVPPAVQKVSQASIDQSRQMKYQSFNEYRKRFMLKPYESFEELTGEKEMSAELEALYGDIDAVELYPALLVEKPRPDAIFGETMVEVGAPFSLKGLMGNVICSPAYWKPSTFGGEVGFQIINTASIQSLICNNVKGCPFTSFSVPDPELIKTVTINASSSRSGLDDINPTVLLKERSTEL
Description: as §1, §2

[4] = test system: human colorectal carcinoma cells (HTC-116); experiment: MTT cytotoxicity assay, HTC-116; assay type: cell-based; conditions: for % Cell viability / % Cytotoxicity: 48 h
Method: as §3, §4

## O=c1cc(-c2ccc(O)c(O)c2)oc2cc(O[C@@H]3O[C@H](CO)[C@@H](O)[C@H](O)[C@H]3O)cc(O)c12 [Luteolin 7-O-glucoside, luteolin 7-O-glucoside]
COX-1
  IC50 values COX-1: 0.982 ± 0.09^c ug/ml
[1]
  IC50 values 5-LOX: 0.915 ± 0.21^ab ug/ml
[2]; HepG2, 6.25 ug/ml
  % Cell viability: 70.35%
  % Cytotoxicity: 29.65%
[2]; HepG2, 12.5 ug/ml
  % Cell viability: 63.99%
  % Cytotoxicity: 36.01%
[2]; HepG2, 25 ug/ml
  % Cell viability: 42.58%
  % Cytotoxicity: 57.42%
[2]; HepG2, 50 ug/ml
  % Cell viability: 28.52%
  % Cytotoxicity: 71.48%
[2]; HepG2, 100 ug/ml
  % Cell viability: 14.11%
  % Cytotoxicity: 85.89%
[2]; HepG2, 48 h
  IC50: 28.23^c ug/ml
[3]; Caco-2, 6.25 ug/ml
  % Cell viability: 70.32%
  % Cytotoxicity: 29.68%
[3]; Caco-2, 12.5 ug/ml
  % Cell viability: 60.35%
  % Cytotoxicity: 39.65%
[3]; Caco-2, 25 ug/ml
  % Cell viability: 49.22%
  % Cytotoxicity: 50.78%
[3]; Caco-2, 50 ug/ml
  % Cell viability: 31.01%
  % Cytotoxicity: 68.99%
[3]; Caco-2, 100 ug/ml
  % Cell viability: 10.63%
  % Cytotoxicity: 89.37%
[3]; Caco-2, 48 h
  IC50: 29.42^c ug/ml
COX-2; mean ± SE, n = 3
  IC50 values COX-2: 1.305 ± 0.14^b ug/ml
COX-2; ratio of IC50 COX-1 to IC50 COX-2
  Selectivity Index (COX-1/COX-2): 0.75
[4]; HTC-116, 6.25 ug/ml
  % Cell viability: 69.86%
  % Cytotoxicity: 30.14%
[4]; HTC-116, 12.5 ug/ml
  % Cell viability: 59.38%
  % Cytotoxicity: 40.62%
[4]; HTC-116, 25 ug/ml
  % Cell viability: 49.17%
  % Cytotoxicity: 50.83%
[4]; HTC-116, 50 ug/ml
  % Cell viability: 34.03%
  % Cytotoxicity: 65.97%
[4]; HTC-116, 100 ug/ml
  % Cell viability: 13.01%
  % Cytotoxicity: 86.99%
[4]; HTC-116, 48 h
  IC50: 30.17^c ug/ml
